HELM strings list units from the 5' end as sugar, base in round brackets, then linkage (d deoxyribose, r ribose, m 2'-O-methyl, p phosphodiester). Strings are as the collection lists them; they lack the last nucleoside at the 3' end of the tested compound. [moe] = 2'-O-(2-methoxyethyl) (MOE); [sp] = phosphorothioate linkage; [m5C] = 5-methylcytosine

Drawing on the OligoGym collection, this text covers 3 h FOB score for 26 substances.

The target in this series is ATXN2. Description: mouse, dose not given. As to conditions: ASO.
Consider “RNA1{[moe](T)[sp].[moe](T)p.[moe]([m5C])p.[moe](T)p.[moe]([m5C])[sp].d(T)[sp].d(A)[sp].d(T)[sp].d(T)[sp].d(T)[sp].d([m5C])[sp].d(T)[sp].d(T)[sp].[moe](T)p.[moe](G)p.[moe](T)[sp].[moe]([m5C])}$$$$ (last 3' nucleoside missing)”, for which the 3 h FOB score was 1 score 0-7.
For “RNA1{[moe](T)[sp].[moe](T)p.[moe]([m5C])p.[moe](T)p.[moe]([m5C])[sp].d(T)[sp].d(A)[sp].d(T)[sp].d(T)[sp].d(T)[sp].d([m5C])[sp].d(T)[sp].d(T)[sp].d(T)[sp].d(G)[sp].[moe](T)p.[moe]([m5C])p.[moe]([m5C])[sp].[moe](A)}$$$$ (last 3' nucleoside missing)” the value was 4 score 0-7; for “RNA1{[moe](T)[sp].[moe](T)p.[moe]([m5C])p.[moe](T)p.[moe]([m5C])p.[moe](T)p.d(A)[sp].d(T)[sp].d(T)[sp].d(T)[sp].d([m5C])[sp].d(T)[sp].d(T)[sp].d(T)[sp].d(G)[sp].d(T)[sp].[moe]([m5C])p.[moe]([m5C])[sp].[moe](A)}$$$$ (last 3' nucleoside missing)”, 4 score 0-7.
In the case of “RNA1{[moe](T)[sp].[moe](T)p.[moe]([m5C])p.[moe](T)p.[moe]([m5C])p.d(T)[sp].d(A)[sp].d(T)[sp].d(T)[sp].d(T)[sp].d([m5C])[sp].d(T)[sp].d(T)[sp].d(T)[sp].d(G)[sp].[moe](T)p.[moe]([m5C])p.[moe]([m5C])[sp].[moe](A)}$$$$ (last 3' nucleoside missing)” it was 3 score 0-7; in that of “RNA1{[moe](T)[sp].[moe](T)p.[moe]([m5C])p.[moe](T)p.d([m5C])[sp].d(T)[sp].d(A)[sp].d(T)[sp].d(T)[sp].d(T)[sp].d([m5C])[sp].d(T)[sp].d(T)[sp].d(T)[sp].[moe](G)p.[moe](T)p.[moe]([m5C])p.[moe]([m5C])[sp].[moe](A)}$$$$ (last 3' nucleoside missing)”, 4 score 0-7.
For “RNA1{[moe](T)[sp].[moe]([m5C])p.[moe](A)p.[moe](G)p.[moe](A)p.d([m5C])[sp].d(T)[sp].d(T)[sp].d([m5C])[sp].d(T)[sp].d(T)[sp].d(G)[sp].d(T)[sp].d(T)[sp].d(G)[sp].[moe](T)p.[moe](T)p.[moe](G)[sp].[moe](T)}$$$$ (last 3' nucleoside missing)” the value was 2 score 0-7; for “RNA1{[moe](T)[sp].[moe]([m5C])p.[moe](A)p.[moe](T)p.[moe](G)p.d(G)[sp].d([m5C])[sp].d(T)[sp].d([m5C])[sp].d([m5C])[sp].d(A)[sp].d(A)[sp].d(T)[sp].d(A)[sp].d(T)[sp].[moe]([m5C])p.[moe](G)p.[moe](G)[sp].[moe]([m5C])}$$$$ (last 3' nucleoside missing)”, 2.25 score 0-7; for “RNA1{[moe](T)[sp].[moe]([m5C])p.[moe](A)p.[moe](T)p.[moe](T)p.d(T)[sp].d(T)[sp].d(A)[sp].d(T)[sp].d(T)[sp].d([m5C])[sp].d(T)[sp].d(G)[sp].d([m5C])[sp].d(T)[sp].[moe](T)p.[moe](T)p.[moe](G)[sp].[moe]([m5C])}$$$$ (last 3' nucleoside missing)”, 2 score 0-7.
Regarding “RNA1{[moe](T)[sp].[moe]([m5C])p.[moe](A)p.[moe](T)p.[moe]([m5C])[sp].d(A)[sp].d(T)[sp].d(T)[sp].d(T)[sp].d(T)[sp].d([m5C])[sp].d([m5C])[sp].d(A)[sp].[moe](G)p.[moe](G)p.[moe](G)[sp].[moe]([m5C])}$$$$ (last 3' nucleoside missing)”, the 3 h FOB score turned out to be 1 score 0-7.
For “RNA1{[moe](T)[sp].[moe]([m5C])p.[moe](G)p.[moe](T)p.[moe](A)p.d(T)[sp].d(G)[sp].d(T)[sp].d(T)[sp].d(T)[sp].d(G)[sp].d(T)[sp].d([m5C])[sp].d(T)[sp].d(G)[sp].[moe](T)p.[moe]([m5C])p.[moe](T)[sp].[moe](T)}$$$$ (last 3' nucleoside missing)” the value was 6.25 score 0-7.
In the case of “RNA1{[moe](T)[sp].[moe]([m5C])p.[moe](T)p.[moe](A)p.[moe](T)[sp].d(T)[sp].d(T)[sp].d([m5C])[sp].d(T)[sp].d(T)[sp].d(T)[sp].d(G)[sp].d(T)[sp].[moe]([m5C])p.[moe]([m5C])p.[moe](A)[sp].[moe](G)}$$$$ (last 3' nucleoside missing)” it was 5 score 0-7.
For “RNA1{[moe](T)[sp].[moe]([m5C])p.[moe](T)p.[moe](A)p.[moe](T)p.d(T)[sp].d(T)[sp].d([m5C])[sp].d(T)[sp].d(T)[sp].d(T)[sp].d(G)[sp].d(T)[sp].d([m5C])[sp].d([m5C])[sp].[moe](A)p.[moe](G)p.[moe](G)[sp].[moe](A)}$$$$ (last 3' nucleoside missing)” the value was 6.5 score 0-7; for “RNA1{[moe](T)[sp].[moe]([m5C])p.[moe](T)p.[moe](G)[sp].[moe](T)[sp].d(A)[sp].d([m5C])[sp].d(T)[sp].d(T)[sp].d(T)[sp].d(T)[sp].d([m5C])[sp].d(T)[sp].d([m5C])[sp].d(A)[sp].[moe](T)p.[moe](G)p.[moe](T)[sp].[moe](G)}$$$$ (last 3' nucleoside missing)”, 1 score 0-7; for “RNA1{[moe](T)[sp].[moe]([m5C])p.[moe](T)p.[moe](G)p.[moe](T)[sp].d(A)[sp].d([m5C])[sp].d(T)[sp].d(T)[sp].d(T)[sp].d(T)[sp].d([m5C])[sp].d(T)[sp].[moe]([m5C])p.[moe](A)p.[moe](T)[sp].[moe](G)}$$$$ (last 3' nucleoside missing)”, 0.5 score 0-7.
Substance “RNA1{[moe](T)[sp].[moe]([m5C])p.[moe](T)p.[moe](G)p.[moe](T)[sp].d(A)[sp].d([m5C])[sp].d(T)[sp].d(T)[sp].d(T)[sp].d(T)[sp].d([m5C])[sp].d(T)[sp].d([m5C])[sp].d(A)[sp].[moe](T)p.[moe](G)p.[moe](T)[sp].[moe](G)}$$$$ (last 3' nucleoside missing)” registered a 3 h FOB score of 0 score 0-7.
For “RNA1{[moe](T)[sp].[moe]([m5C])p.[moe](T)p.[moe](G)p.[moe](T)p.[moe](A)p.d([m5C])[sp].d(T)[sp].d(T)[sp].d(T)[sp].d(T)[sp].d([m5C])[sp].d(T)[sp].d([m5C])[sp].d(A)[sp].d(T)[sp].[moe](G)p.[moe](T)[sp].[moe](G)}$$$$ (last 3' nucleoside missing)” the value was 1 score 0-7; for “RNA1{[moe](T)[sp].[moe]([m5C])p.[moe](T)p.[moe](G)p.[moe](T)p.d(A)[sp].d([m5C])[sp].d(T)[sp].d(T)[sp].d(T)[sp].d(T)[sp].d([m5C])[sp].d(T)[sp].d([m5C])[sp].d(A)[sp].[moe](T)p.[moe](G)p.[moe](T)[sp].[moe](G)}$$$$ (last 3' nucleoside missing)”, 0 score 0-7.
In the case of “RNA1{[moe](T)[sp].[moe]([m5C])p.[moe](T)p.[moe](G)p.[moe]([m5C])[sp].d(T)[sp].d(A)[sp].d(A)[sp].d([m5C])[sp].d(T)[sp].d(G)[sp].d(G)[sp].d(T)[sp].[moe](T)p.[moe](T)p.[moe](G)[sp].[moe]([m5C])}$$$$ (last 3' nucleoside missing)” it was 2 score 0-7.
For “RNA1{[moe](T)[sp].[moe]([m5C])p.[moe](T)p.[moe](G)p.[moe]([m5C])p.d(T)[sp].d(A)[sp].d(A)[sp].d([m5C])[sp].d(T)[sp].d(G)[sp].d(G)[sp].d(T)[sp].d(T)[sp].d(T)[sp].[moe](G)p.[moe]([m5C])p.[moe]([m5C])[sp].[moe]([m5C])}$$$$ (last 3' nucleoside missing)” the value was 3 score 0-7.
The substance “RNA1{[moe](T)[sp].[moe]([m5C])p.[moe](T)p.[moe](G)p.d(T)[sp].d(A)[sp].d([m5C])[sp].d(T)[sp].d(T)[sp].d(T)[sp].d(T)[sp].d([m5C])[sp].d(T)[sp].d([m5C])[sp].[moe](A)p.[moe](T)p.[moe](G)p.[moe](T)[sp].[moe](G)}$$$$ (last 3' nucleoside missing)” yielded a 3 h FOB score of 0 score 0-7.
“RNA1{[moe](T)[sp].[moe]([m5C])p.[moe](T)p.[moe](T)p.[moe](G)p.d(T)[sp].d(T)[sp].d(G)[sp].d(T)[sp].d(T)[sp].d(G)[sp].d(T)[sp].d(T)[sp].d(T)[sp].d(A)[sp].[moe]([m5C])p.[moe](A)p.[moe](T)[sp].[moe](T)}$$$$ (last 3' nucleoside missing)” returned a 3 h FOB score of 3 score 0-7.
In the case of “RNA1{[moe](T)[sp].[moe]([m5C])p.[moe](T)p.[moe]([m5C])p.[moe](T)[sp].d(A)[sp].d(T)[sp].d(T)[sp].d(T)[sp].d([m5C])[sp].d(T)[sp].d(T)[sp].d(T)[sp].[moe](G)p.[moe](T)p.[moe]([m5C])[sp].[moe]([m5C])}$$$$ (last 3' nucleoside missing)” it was 1 score 0-7; in that of “RNA1{[moe](T)[sp].[moe]([m5C])p.[moe](T)p.[moe]([m5C])p.[moe](T)p.d(A)[sp].d(T)[sp].d(T)[sp].d(T)[sp].d([m5C])[sp].d(T)[sp].d(T)[sp].d(T)[sp].d(G)[sp].d(T)[sp].[moe]([m5C])p.[moe]([m5C])p.[moe](A)[sp].[moe](G)}$$$$ (last 3' nucleoside missing)”, 6.75 score 0-7.
In the case of “RNA1{[moe](T)[sp].[moe]([m5C])p.[moe](T)p.[moe]([m5C])p.[moe]([m5C])[sp].d(A)[sp].d(T)[sp].d(T)[sp].d(A)[sp].d(T)[sp].d(T)[sp].d(T)[sp].d([m5C])[sp].[moe](T)p.[moe](T)p.[moe]([m5C])[sp].[moe](A)}$$$$ (last 3' nucleoside missing)”, the 3 h FOB score is 1 score 0-7.
For “RNA1{[moe](T)[sp].[moe]([m5C])p.[moe](T)p.[moe]([m5C])p.[moe]([m5C])p.d(A)[sp].d(T)[sp].d(T)[sp].d(A)[sp].d(T)[sp].d(T)[sp].d(T)[sp].d([m5C])[sp].d(T)[sp].d(T)[sp].[moe]([m5C])p.[moe](A)p.[moe]([m5C])[sp].[moe](G)}$$$$ (last 3' nucleoside missing)” the value was 0.75 score 0-7; for “RNA1{[moe](T)[sp].[moe]([m5C])p.[moe]([m5C])p.[moe](A)p.[moe](A)p.d(G)[sp].d(T)[sp].d(A)[sp].d(A)[sp].d([m5C])[sp].d(A)[sp].d(G)[sp].d(T)[sp].d(G)[sp].d(T)[sp].[moe](A)p.[moe](G)p.[moe](A)[sp].[moe](A)}$$$$ (last 3' nucleoside missing)”, 4 score 0-7.
